According to PMC9120017, “Inhibition mechanism of the chloride channel TMEM16A by the pore blocker 1PBC” (Nature Communications, 2022):
Like-named read-outs stand apart in the source and are kept apart here.

Biological target: T1, mouse TMEM16A mutant I640A (Mus musculus, UniProt Q8BHY3, I640A)
T1 construct: expressed in transfected cells; host or cells: HEK293T
T1 sequence (Q8BHY3 1-960 I640A): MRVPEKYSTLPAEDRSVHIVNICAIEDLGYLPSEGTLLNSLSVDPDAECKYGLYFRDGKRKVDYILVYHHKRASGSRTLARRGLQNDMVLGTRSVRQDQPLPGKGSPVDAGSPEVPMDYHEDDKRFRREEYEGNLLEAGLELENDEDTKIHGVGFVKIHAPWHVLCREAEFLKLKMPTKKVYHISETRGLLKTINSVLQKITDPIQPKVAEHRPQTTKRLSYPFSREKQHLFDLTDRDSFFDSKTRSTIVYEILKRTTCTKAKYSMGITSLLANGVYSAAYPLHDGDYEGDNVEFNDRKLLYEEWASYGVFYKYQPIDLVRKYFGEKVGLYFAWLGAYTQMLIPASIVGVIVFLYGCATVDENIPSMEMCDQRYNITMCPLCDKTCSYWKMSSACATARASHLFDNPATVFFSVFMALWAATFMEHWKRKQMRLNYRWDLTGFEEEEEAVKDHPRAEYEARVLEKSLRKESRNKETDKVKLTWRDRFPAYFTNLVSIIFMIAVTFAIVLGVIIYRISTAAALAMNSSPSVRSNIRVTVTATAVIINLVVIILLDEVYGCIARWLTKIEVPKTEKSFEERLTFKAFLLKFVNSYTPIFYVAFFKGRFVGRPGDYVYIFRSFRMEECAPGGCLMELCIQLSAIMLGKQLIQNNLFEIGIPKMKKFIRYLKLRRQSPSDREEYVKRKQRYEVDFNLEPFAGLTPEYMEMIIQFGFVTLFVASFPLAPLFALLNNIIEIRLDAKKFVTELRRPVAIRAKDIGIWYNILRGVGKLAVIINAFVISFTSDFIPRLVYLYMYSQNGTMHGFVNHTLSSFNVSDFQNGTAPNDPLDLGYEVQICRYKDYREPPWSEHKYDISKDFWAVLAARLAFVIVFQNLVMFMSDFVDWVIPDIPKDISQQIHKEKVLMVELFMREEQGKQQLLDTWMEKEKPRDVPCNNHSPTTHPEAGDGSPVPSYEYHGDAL
Assay: Inside-out patch recording of 1PBC block, mutant I640A
Assay type: cell-based
Details: for IC50: 15 µM Ca2+
Procedure: HEK293T cells (ATCC CRL-1573) were maintained in Dulbecco’s modified Eagle’s medium (DMEM; Sigma-Aldrich) supplemented with 10 U ml^−1 penicillin, 0.1 mg ml^−1 streptomycin (Sigma-Aldrich), 2 mM L-glutamine (Sigma-Aldrich), and 10% FBS (Sigma-Aldrich) in a humidified atmosphere containing 5% CO2 at 37 °C. HEK293S GnTI^− cells (ATCC CRL-3022) were maintained in HyClone HyCell TransFx-H medium (GE Healthcare) supplemented with 10 U ml^−1 penicillin, 0.1 mg ml^−1 streptomycin, 4 mM L-glutamine, 0.15% poloxamer 188 (Sigma-Aldrich), and 1% FBS in an atmosphere containing 5% CO2 at 185 rpm at 37 °C. The ac splice variant of mouse TMEM16A (UniProt ID: Q8BHY3), mouse TMEM16B (UniProt ID: Q8CFW1), or mouse TMEM16F (UniProt ID: Q6P9J9) bearing a 3C cleavage site, a Venus YFP, a Myc tag, and a Streptavidin-binding peptide (SBP) downstream of the open reading frame in a modified pcDNA3.1 vector (Invitrogen) were used as described previously[21],[31]. Mutations were introduced using a modified QuikChange method[58] and were verified by sequencing.
HEK293T cells were transfected with 3–4 μg DNA per 6 cm Petri dish using the calcium phosphate co-precipitation method and were used within 24–96 h after transfection. Recordings were performed on inside-out patches excised from HEK293T cells expressing the construct of interest. Patch pipettes were pulled from borosilicate glass capillaries (O.D. 1.5 mm, I.D. 0.86 mm, Sutter Instrument) and were fire-polished with a microforge (Narishige) before use. Pipette resistance was typically 3–8 MΩ when filled with the recording solutions detailed below. Seal resistance was typically 4 GΩ or higher. Voltage-clamp recordings were made using Axopatch 200B, Digidata 1550, and Clampex 10.7 (Molecular Devices). Analog signals were filtered with the in-built 4-pole Bessel filter at 10 kHz and were digitized at 20 kHz. Solution exchange was achieved using a gravity-fed system through a theta glass pipette mounted on an ultra-fast piezo-driven stepper (Siskiyou). […] All recordings were performed at 20 °C.
A symmetrical ionic condition was used throughout. Stock solution with Ca^2+-EGTA contained 150 mM NaCl, 5.99 mM Ca(OH)2, 5 mM EGTA, and 10 mM HEPES at pH 7.40. Stock solution with EGTA contained 150 mM NaCl, 5 mM EGTA, and 10 mM HEPES at pH 7.40. Free Ca^2+ concentrations were adjusted by mixing the stock solutions at the required ratios calculated using the WEBMAXC program (http://web.stanford.edu/~cpatton/webmaxcS.htm). Patch pipettes were filled with the stock solution with Ca^2+-EGTA, which has a free Ca^2+ concentration of 1 mM. 1PBC (ChemBridge) stock was reconstituted in anhydrous DMSO (Sigma-Aldrich) at 100 mM and stored at −20 °C. Working solutions with 1PBC were prepared by serial dilution. Unless otherwise stated, experiments were performed at a saturating Ca^2+ concentration as shown in Supplementary Table 1 and the primary data were corrected for current rundown as described previously[21],[25].
Concentration-response relations, obtained from the ratio of the I-V plots before and after the application of the blocker, were fitted to the Hill equation,1 I/Imax=1/1+IC50/[blocker]^h where I/Imax is the normalized current responses, IC50 defines the concentration at which inhibition is at its half-maximum, and h is the Hill coefficient.

With `N#Cc1c(C(F)(F)F)cc(O)n2c1nc1ccccc12` [1PBC] the IC50 (0 mV) was 31.5 µM, the remaining activity at 3 µM (0 mV, 1PBC conc 3, read-out: relative current in 1PBC (avr)) was 90.3% and the remaining activity at 10 µM (0 mV, 1PBC conc 10, read-out: relative current in 1PBC (avr)) was 75.5%. It also gave a remaining activity at 30 µM (0 mV, 1PBC conc 30, read-out: relative current in 1PBC (avr)) of 52.3%, a remaining activity at 100 µM (0 mV, 1PBC conc 100, read-out: relative current in 1PBC (avr)) of 23.3% and a remaining activity at 3 µM (3 µM 1PBC, +80 mV, saturating Ca2+ (15 µM), read-out: I/Imax) of 89.4%. It also gave a remaining activity at 3 µM (3 µM 1PBC, -80 mV, saturating Ca2+ (15 µM), read-out: I/Imax) of 92.4%, a remaining activity at 10 µM (10 µM 1PBC, +80 mV, saturating Ca2+ (15 µM), read-out: I/Imax) of 67.9% and a remaining activity at 10 µM (10 µM 1PBC, -80 mV, saturating Ca2+ (15 µM), read-out: I/Imax) of 84.6%. It also gave a remaining activity at 30 µM (30 µM 1PBC, +80 mV, saturating Ca2+ (15 µM), read-out: I/Imax) of 43%, a remaining activity at 30 µM (30 µM 1PBC, -80 mV, saturating Ca2+ (15 µM), read-out: I/Imax) of 64.1% and a remaining activity at 100 µM (100 µM 1PBC, +80 mV, saturating Ca2+ (15 µM), read-out: I/Imax) of 17.7%. For the same compound, the remaining activity at 100 µM (100 µM 1PBC, -80 mV, saturating Ca2+ (15 µM), read-out: I/Imax) was 34.6%, the “normalised current (avr)” value (1PBC 3, V 0 mV) was -0.001271 and the “normalised current (avr)” value (1PBC 3, V 40 mV) was 0.2411. The “normalised current (avr)” value (1PBC 3, V 60 mV) was 0.367, the “normalised current (avr)” value (1PBC 3, V 80 mV) was 0.5025 and the “normalised current (avr)” value (1PBC 3, V 100 mV) was 0.651. For the same compound, the “normalised current (avr)” value (1PBC 3, V 120 mV) was 0.7973, the “normalised current (avr)” value (1PBC 3, V 140 mV) was 0.965 and the “normalised current (avr)” value (1PBC 3, V -20 mV) was -0.1226. The “normalised current (avr)” value (1PBC 3, V -40 mV) was -0.2495, the “normalised current (avr)” value (1PBC 3, V -60 mV) was -0.3836 and the “normalised current (avr)” value (1PBC 3, V -80 mV) was -0.5286. The “normalised current (avr)” value (1PBC 3, V -100 mV) was -0.6862, the “normalised current (avr)” value (1PBC 3, V -120 mV) was -0.8514 and the “normalised current (avr)” value (1PBC 3, V -140 mV) was -1.031. The “normalised current (avr)” value (1PBC 10, V 0 mV) was -0.001063, the “normalised current (avr)” value (1PBC 10, V 40 mV) was 0.1907 and the “normalised current (avr)” value (1PBC 10, V 60 mV) was 0.2862. The “normalised current (avr)” value (1PBC 10, V 80 mV) was 0.3819, the “normalised current (avr)” value (1PBC 10, V 100 mV) was 0.495 and the “normalised current (avr)” value (1PBC 10, V 120 mV) was 0.6083. The “normalised current (avr)” value (1PBC 10, V 140 mV) was 0.7528, the “normalised current (avr)” value (1PBC 10, V -20 mV) was -0.1054 and the “normalised current (avr)” value (1PBC 10, V -40 mV) was -0.2204. The “normalised current (avr)” value (1PBC 10, V -60 mV) was -0.3486, the “normalised current (avr)” value (1PBC 10, V -80 mV) was -0.4836 and the “normalised current (avr)” value (1PBC 10, V -100 mV) was -0.6367. For the same compound, the “normalised current (avr)” value (1PBC 10, V -120 mV) was -0.7969, the “normalised current (avr)” value (1PBC 10, V -140 mV) was -0.9705 and the “normalised current (avr)” value (1PBC 30, V 0 mV) was -0.0007361. For the same compound, the “normalised current (avr)” value (1PBC 30, V 40 mV) was 0.1262, the “normalised current (avr)” value (1PBC 30, V 60 mV) was 0.1828 and the “normalised current (avr)” value (1PBC 30, V 80 mV) was 0.2416. For the same compound, the “normalised current (avr)” value (1PBC 30, V 100 mV) was 0.3073, the “normalised current (avr)” value (1PBC 30, V 120 mV) was 0.3826 and the “normalised current (avr)” value (1PBC 30, V 140 mV) was 0.476. The “normalised current (avr)” value (1PBC 30, V -20 mV) was -0.07452, the “normalised current (avr)” value (1PBC 30, V -40 mV) was -0.1601 and the “normalised current (avr)” value (1PBC 30, V -60 mV) was -0.2555. For the same compound, the “normalised current (avr)” value (1PBC 30, V -80 mV) was -0.3668, the “normalised current (avr)” value (1PBC 30, V -100 mV) was -0.4877 and the “normalised current (avr)” value (1PBC 30, V -120 mV) was -0.6228. For the same compound, the “normalised current (avr)” value (1PBC 30, V -140 mV) was -0.7629, the “normalised current (avr)” value (1PBC 100, V 0 mV) was -0.0003287 and the “normalised current (avr)” value (1PBC 100, V 60 mV) was 0.07288. The “normalised current (avr)” value (1PBC 100, V 80 mV) was 0.09923, the “normalised current (avr)” value (1PBC 100, V 100 mV) was 0.1285 and the “normalised current (avr)” value (1PBC 100, V 120 mV) was 0.1506. For the same compound, the “normalised current (avr)” value (1PBC 100, V 140 mV) was 0.1846, the “normalised current (avr)” value (1PBC 100, V -20 mV) was -0.0346 and the “normalised current (avr)” value (1PBC 100, V -40 mV) was -0.07836. For the same compound, the “normalised current (avr)” value (1PBC 100, V -60 mV) was -0.1311, the “normalised current (avr)” value (1PBC 100, V -80 mV) was -0.1979 and the “normalised current (avr)” value (1PBC 100, V -100 mV) was -0.2777. The “normalised current (avr)” value (1PBC 100, V -120 mV) was -0.3667, the “normalised current (avr)” value (1PBC 100, V -140 mV) was -0.4836 and the IC50 (20 mV) was 27.5 µM. It also gave a remaining activity at 3 µM (20 mV, 1PBC conc 3, read-out: relative current in 1PBC (avr)) of 89.4%, a remaining activity at 10 µM (20 mV, 1PBC conc 10, read-out: relative current in 1PBC (avr)) of 72.5% and a remaining activity at 30 µM (20 mV, 1PBC conc 30, read-out: relative current in 1PBC (avr)) of 49.1%. The remaining activity at 100 µM (20 mV, 1PBC conc 100, read-out: relative current in 1PBC (avr)) was 20.9%, the IC50 (40 mV) was 24.7 µM and the remaining activity at 3 µM (40 mV, 1PBC conc 3, read-out: relative current in 1PBC (avr)) was 89%. The remaining activity at 10 µM (40 mV, 1PBC conc 10, read-out: relative current in 1PBC (avr)) was 70.4% and the remaining activity at 30 µM (40 mV, 1PBC conc 30, read-out: relative current in 1PBC (avr)) was 46.6%.
